Data on 33 compounds can be found in patent publication US8791132B2, “Compounds and methods for treatment of hypertension” (Medivation Technologies, Inc., priority 2011, dated 2014).

In experiment [1] the target is T1, human recombinant adrenergic α2B receptor (Homo sapiens, UniProt P18089).
T1 construct: expressed in transfected cells; host or cells: CHO-K1
T1 sequence (P18089 1-450): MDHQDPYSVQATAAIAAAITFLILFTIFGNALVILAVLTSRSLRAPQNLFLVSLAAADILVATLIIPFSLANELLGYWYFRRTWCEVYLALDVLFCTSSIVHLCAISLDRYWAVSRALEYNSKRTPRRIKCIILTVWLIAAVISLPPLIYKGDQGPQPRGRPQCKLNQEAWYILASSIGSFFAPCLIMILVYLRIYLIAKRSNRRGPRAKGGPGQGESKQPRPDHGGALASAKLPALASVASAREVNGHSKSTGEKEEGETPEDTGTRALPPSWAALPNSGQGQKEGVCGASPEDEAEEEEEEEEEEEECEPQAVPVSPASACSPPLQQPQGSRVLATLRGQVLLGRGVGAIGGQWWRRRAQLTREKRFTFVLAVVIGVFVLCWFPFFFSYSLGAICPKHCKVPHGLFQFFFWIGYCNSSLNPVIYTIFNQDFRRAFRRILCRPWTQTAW
Nature of the experiment: Radioligand binding, adrenergic α2B ([3H]Rauwolscine). To be noted: for Percentage inhibition of ligand binding, Adrenergic α2B: 0.03 μM compound; for Percentage inhibition of ligand binding, Adrenergic α2B / Percentage inhibition of ligand binding, Adrenergic α2B (0.03 μM): 0.03 µM; for Percentage inhibition of ligand binding, Adrenergic α2B (0.03 μM): compound at 0.03 μM; for Ki: read-out: Ki α2B; for inhibition at 0.03 µM: read-out: Percentage inhibition of ligand binding, Adrenergic α2B (0.03 μM), compound at 0.03 μM. As to the method:
To evaluate in radioligand binding assays the activity of compounds of the invention, human recombinant adrenergic α2B receptor expressed in Chinese hamster ovary (CHO) K1 cells (Uhlen, S. et al, Eur. J. Pharmacol. 343(1):93, 1998) in a modified Tris-HCl buffer (50 mM Tris-HCl, pH 7.4, 12.5 mM MgCl2, 1 mM EDTA, 0.2% BSA) was used. Compounds of the invention were incubated with 2.5 nM [3H]Rauwolscine for 60 min at 25° C. Non-specific binding was estimated in the presence of 10 μM Prazosin. Receptor proteins were filtered and washed, the filters were then counted to determine [3H]Rauwolscine specifically bound. […] Compounds of the invention were tested in this biochemical assay and percent inhibition of specific binding was determined. Biochemical assay results are presented as the percent inhibition of specific binding in Table B1.

Experiment [2] deals with T2, human recombinant adrenergic α2A receptor (Homo sapiens, UniProt P08913).
T2 construct: expressed in transfected cells; host or cells: insect Sf9 cells
T2 sequence (P08913 1-465): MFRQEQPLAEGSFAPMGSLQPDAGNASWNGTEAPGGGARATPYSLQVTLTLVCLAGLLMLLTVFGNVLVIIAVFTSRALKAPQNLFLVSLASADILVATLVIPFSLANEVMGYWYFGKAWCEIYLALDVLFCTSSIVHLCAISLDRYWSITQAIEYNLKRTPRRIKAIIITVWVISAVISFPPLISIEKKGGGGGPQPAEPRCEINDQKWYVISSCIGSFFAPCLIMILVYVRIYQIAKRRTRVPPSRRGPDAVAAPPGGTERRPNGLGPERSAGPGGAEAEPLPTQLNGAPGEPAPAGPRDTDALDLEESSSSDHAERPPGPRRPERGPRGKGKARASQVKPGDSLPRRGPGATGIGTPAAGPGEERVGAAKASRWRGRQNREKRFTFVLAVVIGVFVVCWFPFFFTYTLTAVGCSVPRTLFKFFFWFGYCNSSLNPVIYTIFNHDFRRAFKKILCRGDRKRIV
In words: Radioligand binding, adrenergic α2A ([3H]MK-912). Conditions: for Percentage inhibition of ligand binding, Adrenergic α2A / Percentage inhibition of ligand binding, Adrenergic α2A (0.1 μM): 0.1 µM; for Percentage inhibition of ligand binding, Adrenergic α2A (0.1 μM): compound at 0.1 μM. As to the method:
To evaluate in radioligand binding assays the activity of compounds of the invention, human recombinant adrenergic α2A receptor expressed in insect Sf9 cells (Uhlen, S. et al, J. Pharmacol. Exp. Ther. 271:1558, 1994) in a modified Tris-HCl buffer (50 mM Tris-HCl, pH 7.4, 12.5 mM MgCl2, 2 mM EDTA) was used. Compounds of invention were incubated with 1 nM [^3H]MK-912 for 60 min at 25° C. MK912 is (2S-trans)-1,3,4,5′,6,6′,7,12b-octahydro-1′,3′-dimethyl-spiro[2H-benzofuro[2,3-a]quinolizine-2,4′(1′H)-pyrimidin]-2′(3′H)-one hydrochloride. Non-specific binding was estimated in the presence of 10 μM WB-4101 (2-(2,6-Dimethoxyphenoxyethyl)aminomethyl-1,4-benzodioxane hydrochloride). Receptor proteins were filtered and washed, the filters were then counted to determine [^3H]MK-912 specifically bound. […] Compounds of the invention were tested in this biochemical assay and percent inhibition of specific binding was determined. Biochemical assay results are presented as the percent inhibition of specific binding in Table B1.

Where [3] appears, read: 0.1 μM compound, read-out: Percentage inhibition of ligand binding, Adrenergic α2B.
Setting [4] is: read-out: Percentage inhibition of ligand binding, Adrenergic α2A (0.1 μM), compound at 0.1 μM, [3H]MK-912, repeat datapoints each shown.
Where [5] appears, read: [3H]Rauwolscine, repeat datapoints each shown.
Setting [6] is: read-out: Percentage inhibition of ligand binding, Adrenergic α2B (0.1 μM), compound at 0.1 μM, [3H]Rauwolscine, repeat datapoints each shown.
The mark [7] stands for this setting: [3H]MK-912, repeat datapoints each shown.

Each structure is given as a SMILES string. Where two headings read alike, the source gives them in different places.

The term inhibition denotes the drop in the measured response relative to a control, in per cent. The term Ki denotes a dissociation constant, usually derived from enzyme kinetics or from competition with a known ligand.

In the case of `C/C(=C\n1c2c(c3cc(C)ccc31)CN(C)CC2(C)C)c1ccncc1` [II-70], the inhibition at 0.1 µM in experiment [1] (setting [3]) came out at 34%.

Take `CN1CCc2c(n(CC(O)c3ccc(F)c(F)c3)c3ccc(Cl)cc23)CC1` (single isomer, unassigned) [339b]: the “Percentage inhibition of ligand binding, Adrenergic α2A” value in experiment [2] (0.1 μM compound) was 64%.

For the compound `Cc1ccc2c(c1)c1c(n2C(C)C(O)c2ccncc2)CCN(C)C1` (stereo not drawn) [II-98b], in experiment [1], the “Percentage inhibition of ligand binding, Adrenergic α2B” value worked out at 5%.

In the case of `C/C(=C\n1c2c(c3cc(C)ccc31)CN(C)CC2(C)C)c1ccc(C)nc1` [II-61], the inhibition at 0.1 µM in experiment [1] (setting [3]) was 47%.

Turning to `CC(O)(Cn1c2c(c3cc(Cl)ccc31)CN(C1CCC1)CC2)c1cccnc1` (single isomer, unassigned) [II-118a], the inhibition at 0.1 µM in experiment [2] (setting [4]) stood at 3%. In experiment [1] (setting [5]), the “Percentage inhibition of ligand binding, Adrenergic α2B (0.03 μM)” value (from here on “Percentage inhibition … (0.03 μM)”) was determined as 27%.

Turning to `Cc1ccc2c(c1)c1c(n2C(C)C(O)c2ccncc2)CCN(C)C1` (single isomer, unassigned) [127a], the inhibition constant (Ki) in experiment [1] was 15.1 nM. In addition, the inhibition at 0.03 µM in experiment [1] (setting [5]) turned out to be 43%. For the same compound, the inhibition at 0.1 µM in experiment [1] (setting [6]) came out at 74%.

On to `CN1CCc2c(c3cc(C(F)(F)F)ccc3n2CCc2ccccc2)C1` [compound 209], for which the inhibition at 0.1 µM in experiment [2] (setting [4]) came out at 80%; in experiment [1] (setting [6]) it was 84%.

As to `C/C(=C\n1c2c(c3cc(C)ccc31)C1CCCCN1CC2)c1ccc(F)cc1` (single isomer, unassigned) [199b], the “Percentage inhibition of ligand binding, Adrenergic α2A (0.1 μM)” value (shortened to “Percentage inhibition … (0.1 μM)”) in experiment [2] (setting [7]) stood at 61%. For the same compound, in experiment [1] (setting [5]), the “Percentage inhibition … (0.03 μM)” value was found to be 27%.

As to `C/C(=C\n1c2c(c3cc(C)ccc31)C1CCCN1CC2)c1ccc(C)nc1` (stereo not drawn) [193a, 10-methyl-7-(2-(6-methylpyridin-3-yl)prop-1-enyl)-2,3,5,6,7,11c-hexahydro-1H-indolizino[7,8-b]indole], the inhibition at 0.03 µM in experiment [1] (setting [5]) came to 98%.

Consider `OCCN1CCc2c(c3cc(Cl)ccc3n2CC(O)c2ccncc2)C1` (stereo not drawn) [II-93b], for which the “Percentage inhibition of ligand binding, Adrenergic α2A” value in experiment [2] (0.1 μM compound) was found to be 4%.

Take `CN1CCc2c(c3cc(Cl)ccc3n2CCC2CCCCC2)C1` [compound 212]: the inhibition at 0.1 µM in experiment [2] (setting [4]) came out at 66%; in experiment [1] (setting [6]) it was 64%.

Take `FC(F)(F)c1ccc(CCn2c3c(c4cccnc42)C2CCCN2CC3)cn1` (stereo not drawn) [IV-2]: in experiment [1] (setting [6]), the inhibition at 0.1 µM was 50%.

Regarding `Cc1ccc2c(c1)c1c(n2CC(C)(O)c2cccnc2)CCN(C)C1C` (single isomer, unassigned) [II-152a], the “Percentage inhibition … (0.03 μM)” value in experiment [1] (setting [5]) is 93%.

With `Cc1ccc(CCn2c3c(c4cc(C(F)(F)F)ccc42)CN(C)CC3)cc1` [compound 210], the values for the inhibition at 0.1 µM in experiment [2] (setting [4]) and in experiment [1] (setting [6]) were 88% and 63%, respectively.

Take `CN1Cc2c(n(CCc3ccc(C(F)(F)F)nc3)c3ncccc23)C(C)(C)C1` [II-215]: the inhibition at 0.1 µM in experiment [1] (setting [6]) was -5%.

`Cc1ccc2c(c1)c1c(n2CC(N=[N+]=[N-])c2ccncc2)CCN(C)C1` (racemic) [V-1, 5-(2-azido-2-(pyridin-4-yl)ethyl)-2,3,4,5-tetrahydro-2,8-dimethyl-1H-pyrido[4,3-b]indole]: in experiment [2] (setting [4]), the inhibition at 0.1 µM turned out to be 35%. Besides, the inhibition constant Ki in experiment [1] was 0.51 nM. The inhibition at 0.03 µM in experiment [1] (setting [5]) came out at 102%.

Regarding `Cc1ccc(CCn2c3c(c4cccnc42)CN(C)CC3(C)C)cn1` [II-133], the inhibition at 0.1 µM in experiment [1] (setting [6]) is -5%.

As to `Cc1ccc2c(c1)c1c(n2CCC2CCCCC2)CCN(C)C1` [compound 205], the inhibition at 0.1 µM in experiment [2] (setting [4]) was found to be 69%; in experiment [1] (setting [6]), 70%.

`CN1CCc2c(c3ccc(Cl)cc3n2CCc2ccccc2)C1` [compound 215]: the values for the inhibition at 0.1 µM in experiment [2] (setting [4]) and in experiment [1] (setting [6]) were 97% and 102%, respectively.

Regarding `FC(F)(F)c1ccc(CCn2c3c(c4cccnc42)CN2CCCC2C3)cn1` (stereo not drawn) [II-236], the inhibition at 0.1 µM in experiment [1] (setting [6]) was -4%.

In the case of `Cc1cnc2c(c1)c1c(n2CC(C)(O)c2ccc(C)nc2)CCN2CCCC12` (single isomer, unassigned) [148d], the “Percentage inhibition … (0.1 μM)” value in experiment [2] (setting [7]) is recorded as −11%. In experiment [1] (setting [5]), the “Percentage inhibition … (0.03 μM)” value is given as 11%.

With `Cc1ccc2c(c1)c1c(n2CCc2ccc(C(F)(F)F)nc2)C(C)(C)CN(C)C1` [II-40], the inhibition at 0.1 µM in experiment [1] (setting [3]) was 36%.

In the case of `C/C(=C\n1c2c(c3cc(C)ccc31)CN(C)CC2)c1cnccc1C` [II-76, (E)-2,8-dimethyl-5-(2-(4-methylpyridin-3-yl)prop-1-en-1-yl)-2,3,4,5-tetrahydro-1H-pyrido[4,3-b]indole], the inhibition at 0.1 µM in experiment [1] (setting [3]) was 103%.

In the case of `Cc1cnc2c(c1)c1c(n2CCc2ccc(C(F)(F)F)nc2)CC2CCCN2C1` (stereo not drawn) [II-239], the inhibition at 0.1 µM in experiment [1] (setting [6]) worked out at 17%.

Consider `Cc1ccc2c(c1)c1c(n2CC(O)c2ccc(C#N)cc2)CCN(C)C1` (single isomer, unassigned) [142b], for which the “Percentage inhibition … (0.1 μM)” value in experiment [2] (setting [7]) worked out at 63%.

Consider `Cc1ccc2c(c1)c1c(n2CCc2ccccc2F)CCN(C)C1` [compound 204], for which, in experiment [2], the Ki came out at 2.48 nM. Also, the inhibition at 0.1 µM in experiment [2] (setting [4]) worked out at 87%; in experiment [1] (setting [6]), 107%.

In the case of `Cc1ccc2c(c1)c1c(n2CC(N)c2ccncc2)CC2CCC1N2C` (single isomer, unassigned) [155a], the “Percentage inhibition … (0.1 μM)” value in experiment [2] (setting [7]) is reported as −1%.

On to `OCCN1CCc2c(c3cc(Cl)ccc3n2CC(O)c2cccnc2)C1` (single isomer, unassigned) [II-94a], for which, in experiment [2] (0.1 μM compound), the “Percentage inhibition of ligand binding, Adrenergic α2A” value amounted to 0%. Further, the “Percentage inhibition of ligand binding, Adrenergic α2B” value in experiment [1] is 8%.

`Cc1cnc2c(c1)c1c(n2CCc2ccc(C(F)(F)F)nc2)CCN2CCCC12` (stereo not drawn) [II-238]: in experiment [1] (setting [6]), the inhibition at 0.1 µM worked out at 98%.

For the compound `Cc1cnc2c(c1)c1c(n2CC(O)c2ccc(C)nc2)CCN(C)C1` (single isomer, unassigned) [II-100a], the inhibition at 0.1 µM in experiment [2] (0.1 μM compound, read-out: Percentage inhibition of ligand binding, Adrenergic α2A) was found to be 7%. In addition, in experiment [1], the “Percentage inhibition of ligand binding, Adrenergic α2B” value is 12%.

For the compound `Cc1cnc2c(c1)c1c(n2CC(O)c2ccc(F)cc2)CCN(C)C1` (single isomer, unassigned) [136b], in experiment [2] (setting [7]), the “Percentage inhibition … (0.1 μM)” value was found to be 21%. The “Percentage inhibition … (0.03 μM)” value in experiment [1] (setting [5]) was found to be 69%.

For `Cc1ccc2c(c1)c1c(n2CC(c2ccncc2)N2CCCC2)CCN(C)C1` (single isomer, unassigned) [152a], the inhibition at 0.1 µM in experiment [2] (setting [4]) came to 17%.

Consider `C/C(=C\n1c2c(c3cc(C)ccc31)C1CCCCN1CC2)c1ccc(F)cc1` (single isomer, unassigned) [199a], for which the “Percentage inhibition … (0.1 μM)” value in experiment [2] (setting [7]) came to 96%. Moreover, in experiment [1] (setting [5]), the “Percentage inhibition … (0.03 μM)” value turned out to be 94%.
